# “Also recorded” adds a separate entry of the source.
# Experiments:
# H1-EPSCs = experiment: Requirement of individual culture components for hEPSCs (RT-qPCR, AP+ colony formation); type: cell-based, human
# Procedure: (§1) Porcine and human EPSC cultures were routinely maintained on STO feeders. STO feeder plates were prepared 3-4 days before passaging by thawing and plating the mitomycin C inactivated STO cells on 0.1% gelatinised plates at the density of ˜1.1×10^4 cells/cm^2. Porcine/human EPSC cells were maintained on STO feeder layers and enzymatically passaged every 3-5 days by a brief PBS wash followed by treatment for 3-5 minutes with 0.25% trypsin/EDTA (Gibco, Cat. No. 25500-054). The cells were dissociated and centrifuged (300 g×5 minutes) in M10 medium. M10: knockout DMEM (Gibco, Cat. No. 10829-018), 10% FBS (Gibco, Cat. No. 10270), 1× Glutamine Penicillin-Streptomycin (Thermo Fisher Scientific, Cat. No. 11140050) and 1×NEAA (Thermo Fisher Scientific, Cat. No. 10378-016). After removing supernatant, the porcine/human EPSCs were re-suspended and seeded in pEPSCM/hEPSCM supplemented with 5 μM ROCK inhibitor Y-27632 (Tocris, Cat. No. 1254). 5% FBS (Gibco, Cat. No. 10270) and 10% KnockOut Serum Replacement (KSR) (Gibco, Cat. No. 10828028) were added in pEPSCM and hEPSCM respectively to improve cells survive. 12-24 hours later, medium was switched to pEPSCM/hEPSCM only. Both pEPSCM and hEPSCM are N2B27 based media. N2B27 basal media (500 ml) was prepared by inclusion of the following components: 482.5 ml DMEM/F-12 (Gibco, Cat. No. 21331-020), 2.5 ml N2 supplement (Thermo Fisher Scientific, Cat. No. 17502048), 5 ml B27 supplement (Thermo Fisher Scientific, Cat. No. 17504044), 5 ml 1× Glutamine Penicillin-Streptomycin (Thermo Fisher Scientific, Cat. No. 11140-050), and 5 ml 1×NEAA (Thermo Fisher Scientific, Cat. No. 10378-016), 0.1 mM 2-mercaptoethanol (Sigma, Cat. No. M6250). pEPSCM (500 ml) was generated by adding the following small molecules and cytokines into 500 ml N2B27 basal media: 0.2 μM CHIR99021(GSK3i, TOCRIS, Cat. No. 4423), 1 μM WH-4-023 (SRC inhibitor, TOCRIS, Cat. No. 5413), 2.5 μM XAV939 (Sigma, Cat. No. X3004) or 2.5 μM IWR-1 (TOCRIS, Cat. No. 3532), […] Vitamin C (Sigma, Cat. No. 49752-100G), 10 ng/ml LIF (Stem Cell Institute, University of Cambridge. SCI) and 20 ng/ml ACTIVIN (SCI). hEPSCM (500 ml) was generated by adding the following components into 500 ml N2B27 basal media: 1.0 μM CHIR99021(GSK3 inhibitor, TOCRIS, Cat. No. 4423), 0.5 μM A-419259 (SRC inhibitor, TOCRIS, Cat. No. 3914), 2.5 μM XAV939 (Sigma, Cat. No. X3004), […] Vitamin C (Sigma, Cat. No. 49752-100G), 10 ng/ml LIF (SCI). Although both targeting SRC family kinases (SFKs), WH-4-023 and A419259 were preferred for porcine and human EPSCs, respectively. […] The concentrations of CHIR99021 for porcine and human EPSC cultures are 0.2 μM and 1.0 μM, respectively. […] 0.25 μM SB 590885 (BRAF inhibitor, R&D, Cat. No. 2650) and 2.0 μM SP600125 ([…], TOCRIS, Cat. No. 1496) were included to improve porcine and human EPSC cultures, but they were not essential for the routine maintenance of porcine and human EPSCs. All cell cultures in this paper were performed under conditions of 37° C. and 5% CO2 unless stated otherwise.
# (§2) Total RNA was isolated using an RNeasy Mini Kit (Qiagen, Cat. No. 74106) for cultured cells or RNeasy Micro Kit (Qiagen, Cat. No. 74034) for sorted NANOS3-mCherry^+ cells. RNA was subsequently quantified and treated with gDNA WipeOut to remove genomic DNA. Complementary DNA (cDNA) was prepared using a QuantiTect Reverse Transcription Kit (Qiagen, Cat. No. 205311). RT-qPCR primers or TaqMan Gene Expression Assays (Life Technologies) are listed in Supplementary Table 10 and 11. ABsolute Blue qPCR ROX Mix (ABgene, Cat. No. AB4138B) were used for probe based qPCR assays and SYBR Green ROX qPCR Mastermix (Qiagen, Cat. No. 330523) were used for primer based qPCR assays. All qPCR reactions were performed on ABI 7900 HT Sequence Detection System (Life Technologies). Information on all primers and probes used for qPCR analysis are provided in Supplementary Table 10 and 11. Gene expression was determined relative to GAPDH using the […]. […]
# pEPSCs^Emb = experiment: Requirement of individual culture components for pEPSCs (RT-qPCR, AP+ colony formation); type: cell-based, porcine; settings: for number of colonies from single cells / pluripotency gene expression: removing the component from pEPSCM
# Procedure: as §1, §2
# human EPSCs = experiment: Differentiation of human EPSCs to trophoblast lineages (CDX2-H2B-Venus reporter flow cytometry, RT-qPCR); type: cell-based
# Procedure: hEPSCs were dissociated with 0.25% trypsin/EDTA and seeded in gelatinised 6-well plates at a density of 0.1×10^6 cells/well. The cells were cultured in 20% KSR media supplemented with 5 μM ROCK inhibitor Y-27632 for 1 day. 20% KSR media: DMEM/F-12 (Gibco, Cat. No. 21331-020), 20% KnockOut Serum Replacement (KSR) (Gibco, Cat. No. 10828-028), 1× glutamine penicillin-streptomycin (Thermo Fisher Scientific, Cat. No. 11140-050), 1×NEAA (Thermo Fisher Scientific, Cat. No. 10378-016) and 0.1 mM 2-mercaptoethanol (Sigma, Cat. No. M6250). From the second day, different combinations of the TGFβ inhibitor SB431542 (10 μM, Tocris, Cat. No. 1514), BMP4 (50 ng/ml, R&D, Cat. No. 5020-BP) and the FGF receptor inhibitor PD173074 (0.1 μM, Tocris, Cat. No. 3044) were added into 20% KSR media to start the trophoblast differentiation. The cells were collected at indicated time points for analysis.
# [1] = test system: NANOS3-H2BmCherry reporter pEPSCs^Emb; experiment: Induction of pPGCLCs from NANOS3-H2BmCherry reporter pEPSCs (EBs, FACS); type: cell-based, porcine; settings: inhibition of BMP2/4 signaling in EB culture
# Procedure: To analyse the contribution of donor mCherry^+ porcine EPSCs in day 25-27 chimeras, the half fetuses were dissected into small pieces representing several body parts (head, trunk and tail). The dissected tissues and placenta were digested with 1.0 mg/ml collagenase IV (Thermo Fisher Scientific, Cat. No. 17104019) for 1-3 hours at 37° C. on a shaker. A pipette was used to blow the tissue blocks and dissociate them into single cells. The dissociated cells were filtered with a 35 μm nylon mesh (Corning, Cat. No. 352235) to remove tissues clumps. After centrifugation, the cells were fixed using Fixation Medium according to the manufacturers' manual (BD Cytofix, Cat. No. 554655) and the washed cells were stored at 4° C. in PBS supplemented with 0.1% NaN3 (Sigma, Cat. No. 199931) and 5% FBS (Gibco, Cat. No. 10270) before analysed with flow cytometry. All the samples were analysed using BD LSR Fortessa cytometer. 561 nm (610/20 bandpass filter) and 488 nm (525/50 bandpass filter) channels were used to detect mCherry and excluded autofluorescence. PGC EBs were trypsinized with 0.25% trypsin/EDTA Gibco, Cat. No. 25500-054) at 37° C. for 15 mins and stained with PerCP-Cy5.5 conjugated anti-TNAP antibody. 561 nm (610/20 bandpass filter) and 488 nm (710/50 bandpass filter) channels were used to detect NANOS3-H2BmCherry^+/TNAP^+ cells. FACS data were analysed by Flowjo software. […]
molecule,measurement,setting,value
Cc1c[nH]c(-c2cnc(NCCNc3ccc(C#N)cn3)nc2-c2ccc(Cl)cc2Cl)n1 [CHIR99021],differentiation of EPSCs,"H1-EPSCs; high concentration 3.0 μM, human EPSCs",induced differentiation; also recorded: induces porcine and human EPSC differentiation
same,proliferation,H1-EPSCs; human EPSCs,improved proliferation
same,differentiation of EPSCs,"pEPSCs^Emb; high concentration 3.0 μM, porcine EPSCs",induced differentiation; also recorded: induces porcine and human EPSC differentiation
same,proliferation,pEPSCs^Emb; porcine EPSCs,improved proliferation
same,number of colonies from single cells,pEPSCs^Emb,reduced
same,pluripotency gene expression,pEPSCs^Emb,did not affect
COc1ccc(N(C(=O)Oc2c(C)cccc2C)c2ccnc(Nc3ccc(N4CCN(C)CC4)cc3)n2)c(OC)c1 [WH-4-023],pluripotency gene expression,H1-EPSCs; WH-4-023 used instead of A419259 in human EPSCs,lower pluripotency gene expression
same,expression of pluripotency factors,"pEPSCs^Emb; removal of the SRC inhibitor, porcine EPSCs",reduced expression of pluripotency factors
O=C1O[C@H]([C@@H](O)CO)C(O)=C1O [Vitamin C],number of colonies from single cells,pEPSCs^Emb,reduced
same,pluripotency gene expression,pEPSCs^Emb,did not affect
NC(=O)c1ccc(-c2nc(-c3ccc4c(c3)OCO4)c(-c3ccccn3)[nH]2)cc1 [SB431542],CDX2 reporter cells being CDX2-Venus+,"human EPSCs; TGFβ inhibition, cells collected 4 days after",70%
same,cell differentiation,"H1-EPSCs; adding the TGFβ inhibitor, human EPSCs",induced rapid cell differentiation
same,cell survival and pluripotency factor expression,pEPSCs^Emb; adding the TGFβ inhibitor to pEPSCM,massive cell loss and down-regulation of pluripotency factors
CN1CCN(C2CCC(n3cc(-c4ccc(Oc5ccccc5)cc4)c4c(N)ncnc43)CC2)CC1 (stereo not shown) [A419259],expression of pluripotency factors,"H1-EPSCs; removal of the SRC inhibitor, human EPSCs",reduced expression of pluripotency factors
c1ccc2c(-c3cnn4cc(-c5ccc(N6CCNCC6)cc5)cnc34)ccnc2c1 [LDN-193189],formation of mCherry+/TNAP+ cell clusters,[1],abrogated
"BMP4: cytokine (R&D, Cat. No. 5020-BP) promoting differentiation of human ESCs to putative trophoblasts (protein, UniProt P21275 293-408, looked up) Bone morphogenetic protein 4: SPKHHPQRSRKKNKNCRRHSLYVDFSDVGWNDWIVAPPGYQAFYCHGDCPFPLADHLNSTNHAIVQTLVNSVNSSIPKACCVPTELSAISMLYLDEYDKVVLKNYQEMVVEGCGCR",expression of trophoblast genes,"human EPSCs; 4-day BMP4 treatment, H1-EPSCs and iPSC-EPSCs versus H1-ESCs or H1-5i naïve ESCs",induced expression of trophoblast genes

# Source: patent US20220145264A1, “CULTURE MEDIUM FOR MAMMALIAN EXPANDED POTENTIAL STEM CELLS, COMPOSITION, AND METHODS THEREOF” (THE UNIVERSITY OF HONG KONG, priority 2019, published 2022)
